Read-outs that look alike come from different tables or passages of the source.
How the values were obtained:
[1] = Pharmacokinetic assessments in plasma, phase I/Ib study; format: in vivo, human; details: for Fold increase in Cmax: fasting; for AUC(0-inf) / Cmax / AUC / half-life / Tmax / k el: human, plasma, oral; for AUC: read-out: AUC(0-τ); for Tmax: median; for k el: read-out: λz (converted)
Description: Complete PK assessments were performed during dose escalation on Day 1 of Cycle 1 and 2 and pre-dose at other time points (pre-dose on Day 8 and Day 15 of Cycle 1 and 2, Day 1 and Day 15 of Cycle 3 and 4 and pre-dose on Cycle 5 and beyond). In the dose expansion phase, samples were collected pre-dose on Day 1 from Cycle 1 to Cycle 8. The PK parameters included maximum plasma concentration (Cmax), time to maximum plasma concentration (Tmax), area under the plasma concentration-time curve from time of administration to the end of the dosing interval (AUC(0-τ)), apparent oral drug clearance during a dosing interval (CLss/F), apparent volume of distribution during a dosing interval (Vz/F) and elimination half-life (t1/2) were evaluated.

patients = details: cumulative safety data across two studies; cited from earlier work
[2] = system: patient-derived primary cell lines representative of B and T lymphoma cell lines; design: method as in doi:10.1182/blood.V122.21.4418.4418; details: cited from earlier work
[3] = system: T-cell leukemia xenograft; design: method as in ref 18 = [18]; 18. Mao G. Viswanadha S. Rhizen, Switzerland Unpublished work 2013; details: cited from earlier work
[4] = between 400 mg and 800 mg BID, Cycle 1 Day 1
[5] = 200 mg, 200 mg BID, C1D1, geometric mean
[6] = 200 mg, 200 mg BID, C2D1, geometric mean
[7] = 400 mg, 400 mg BID, C1D1, geometric mean
[8] = 400 mg, 400 mg BID, C2D1, geometric mean
[9] = 800 mg, 800 mg BID (fed), C1D1, geometric mean
[10] = 800 mg, 800 mg BID (fed), C2D1, geometric mean
[11] = 800 mg, 800 mg BID, C1D1, geometric mean
[12] = 800 mg, 800 mg BID, C2D1, geometric mean

Question: Which results are given for `CC[C@H](Nc1ncnc2[nH]cnc12)c1oc2ccccc2c(=O)c1-c1cccc(F)c1` [Tenalisib]?
Answer: λz ([1]; 200 mg BID, C2D1): 0.4 h⁻¹; λz ([1]; 400 mg BID, C2D1): 0.4 h⁻¹; λz ([1]; 800 mg BID (fed), C1D1): 0.3 h⁻¹; λz ([1]; 800 mg BID (fed), C2D1): 0.3 h⁻¹; Food effect on exposure ([1]; 800 mg BID fasting vs 800 mg BID fed cohort, patients): not significant; λz ([1]; 800 mg BID, C2D1): 0.3 h⁻¹; Change in Cmax and AUC's, fed vs fasting ([1]; 800 mg fed and fasting cohorts, patients): < 20%; Dose proportionality of Cmax and AUC(0-τ) ([1]; Cycle 1 Day 1): increased proportionally with dose; Tissue distribution (Vz/F) ([1]; all cohorts): not highly distributed in tissues; Fold increase in AUC(0-τ) ([1]; between 200mg and 400 mg BID, Cycle 1 Day 1): 1.8 fold; Fold increase in Cmax ([1]; between 200 mg and 400 mg BID, Cycle 1 Day 1): 1.7 fold; Fold increase in Cmax ([1]; between 200 mg and 400 mg BID, Cycle 2 Day 1): 1.8 fold; Fold increase in AUC(0-τ) [1, 4]: 2.6 fold; Fold increase in Cmax [1, 4]: 1.8 fold; Fold increase in Cmax ([1]; between 400 mg and 800 mg BID, Cycle 2 Day 1): 1.1 fold; Accumulation ([1]; between Cycle 1 Day 1 and Cycle 2 Day 1): no significant accumulation; AUC(0-inf) [1, 5]: 3540 ng·h/mL; Cmax [1, 5]: 1300 ng/mL; AUC [1, 5]: 3500 ng·h/mL; half-life ([1]; 200 mg, 200 mg BID, C1D1, geometric mean, read-out: t1/2 (converted)): 1.6 h; Tmax ([1]; 200 mg, 200 mg BID, C1D1): 1 h; AUC(0-inf) [1, 6]: 4020 ng·h/mL; Cmax [1, 6]: 1650 ng/mL; AUC [1, 6]: 3970 ng·h/mL; half-life ([1]; 200 mg, 200 mg BID, C2D1, geometric mean, read-out: t1/2 (converted)): 1.8 h; Tmax ([1]; 200 mg, 200 mg BID, C2D1): 0.5 h; AUC(0-inf) [1, 7]: 6530 ng·h/mL; Cmax [1, 7]: 2200 ng/mL; AUC [1, 7]: 6420 ng·h/mL; half-life ([1]; 400 mg, 400 mg BID, C1D1, geometric mean, read-out: t1/2 (converted)): 1.9 h; Tmax ([1]; 400 mg, 400 mg BID, C1D1): 0.8 h; AUC(0-inf) [1, 8]: 5600 ng·h/mL; Cmax [1, 8]: 2900 ng/mL; AUC [1, 8]: 5530 ng·h/mL; half-life ([1]; 400 mg, 400 mg BID, C2D1, geometric mean, read-out: t1/2 (converted)): 2 h; Tmax ([1]; 400 mg, 400 mg BID, C2D1): 0.5 h; AUC(0-inf) [1, 9]: 14500 ng·h/mL; Cmax [1, 9]: 2670 ng/mL; AUC [1, 9]: 13600 ng·h/mL; half-life ([1]; 800 mg, 800 mg BID (fed), C1D1, geometric mean, read-out: t1/2 (converted)): 2.6 h; Tmax ([1]; 800 mg, 800 mg BID (fed), C1D1): 2.1 h; AUC(0-inf) [1, 10]: 14200 ng·h/mL; Cmax [1, 10]: 4170 ng/mL; AUC [1, 10]: 13600 ng·h/mL; half-life ([1]; 800 mg, 800 mg BID (fed), C2D1, geometric mean, read-out: t1/2 (converted)): 2.8 h; Tmax ([1]; 800 mg, 800 mg BID (fed), C2D1): 1.1 h; AUC(0-inf) [1, 11]: 17400 ng·h/mL; Cmax [1, 11]: 4000 ng/mL; AUC [1, 11]: 16400 ng·h/mL; half-life ([1]; 800 mg, 800 mg BID, C1D1, geometric mean, read-out: t1/2 (converted)): 2.6 h; Tmax ([1]; 800 mg, 800 mg BID, C1D1): 1.1 h; AUC(0-inf) [1, 12]: 17200 ng·h/mL; Cmax [1, 12]: 3230 ng/mL; AUC [1, 12]: 16200 ng·h/mL; half-life ([1]; 800 mg, 800 mg BID, C2D1, geometric mean, read-out: t1/2 (converted)): 2.6 h; Tmax ([1]; 800 mg, 800 mg BID, C2D1): 2.1 h; half-life ([1]; all cohorts, read-out: Median t1/2 (converted)): 2.28 h; half-life ([1]; all cohorts, read-out: t1/2 range): 1.6 to 2.8 h; k el ([1]; 200 mg BID, C1D1): 0.000111 s⁻¹; k el ([1]; 400 mg BID, C1D1): 0.000111 s⁻¹; k el ([1]; 800 mg BID, C1D1): 8.33e-05 s⁻¹; Colitis and pneumonitis events (patients): no events of colitis and pneumonitis; Transaminitis incidence (patients): 10%; Apoptotic and anti-proliferative activity [2]: demonstrated apoptotic and anti-proliferative activity; Efficacy in xenograft model [3]: demonstrated efficacy

Source: paper PMC7463651, “Phase I/Ib Study of Tenalisib (RP6530), a Dual PI3K δ/γ Inhibitor in Patients with Relapsed/Refractory T-Cell Lymphoma” (Cancers, 2020)
